# Results taken from US20080026362A1, “Three-dimensional culture containing human articular chondrocytes with induced terminal differentiation changes, and preparation process and uses of the same” (Kaohsiung Medical University, priority 2006, published 2008).
# Assays:
# Type in all cases: cell-based
# [1] = system: collagen type II gene; assay: RT-PCR, mRNA expression of collagen type II in alginate-bead human articular chondrocytes (NHAC-kn); conditions: p<0.01
# Experimental: (§1) The alginate beads were prepared with reference to C. Sanchez et al. (2002), J. Rheumatol, 29:772-82. Briefly, the above-described human articular chondrocyte cultures were suspended in a 1.2% alginate solution in 0.9% NaCl, so as to form a cell suspension at a density of 1×10^6 cells/mL. The cell suspension was then slowly dropped into a 102 mM CaCl2 solution through a yellow pipette tip, to result in the formation of alginate beads entrapping the human articular chondrocytes. The thus-formed alginate beads were allowed to polymerize for further 10 minutes in the CaCl2 solution at room temperature.
# (§2) After washing with saline solution, 15 alginate beads were cultivated in 5 ml of culture medium per well in a 6-well plate. […]
# (§3) The NHAC-kn cultures were used in the following experiments except the quantitative real-time polymerase chain reaction (quantitative real-time PCR). The KMU-AC cultures were used to quantify mRNA expression by quantitative real-time PCR, which was performed to further confirm the effect of Aza-C on gene expression of human articular chondrocytes.
# (§4) On Day 3, 7 and 14 after a 48 hr Aza-C treatment, expressions of the mRNA of type II and type X collagens and alkaline phosphatase (ALP) of Aza-C-treated and non-treated cells (control) were measured by RT-PCR. […]
# [2] = system: ALP gene; assay: Quantitative real-time PCR, mRNA expression of ALP in human articular chondrocytes (KMU-AC); conditions: normalized to GAPDH, control Day 3 = 100%, mean ± S.E.M.
# Experimental: as §1
# (§5) After washing with saline solution, 15 alginate beads were cultivated in 5 ml of culture medium per well in a 6-well plate. Culture medium was the Chondrocyte basal medium (Bulletkit, Clonic®; BioWhittaker, Walkersville, Md.) with a supplement of the Chondrocyte growth medium, containing R3-IGF1, bFGF, transferrin, insulin, fetal bovine serum and gentamicin/amphotericin-B (SingleQuots, Clonic®; BioWhittaker, Walkersville, Md.). […]
# as §3
# (§6) Quantitative real-time PCR was also performed to further confirm the finding from RT-PCR. On Day 3, 7 and 14 after a 48 hr Aza-C treatment, the mRNA expressions of type II and type X collagens and ALP of Aza-C treated and control cells were measured. […]
# (§7) The quantitative real-time PCR was performed in an ABI Prism 7900 HT Sequence Detection System (Applied Biosystems, Foster City, Calif.) using the SYBR Green PCR Master Mix Reagent containing the Amplitag Gold DNA polymerase, dNTP mixed with dUTP, SYBR Green 1, passive reference and reaction buffer (Applied Biosystems, Foster City, Calif.). […]
# [3] = system: collagen type X gene; assay: Quantitative real-time PCR, mRNA expression of collagen type X in human articular chondrocytes (KMU-AC); conditions: normalized to GAPDH, control Day 3 = 100%, mean ± S.E.M.
# Experimental: as §1, with “temperature. […]” for “temperature.”
# as §3, §6
# The thus-obtained PCR products (amplicons) were detected by the fluorescence of SYBR Green, the double stranded DNA binding dye (T. B. Morrison et al. (1998), Biotechniques, 24:954-958, 960, 962). […]
# [4] = system: collagen type X gene; assay: RT-PCR, mRNA expression of collagen type X in alginate-bead human articular chondrocytes (NHAC-kn); conditions: p<0.01
# Experimental: as §1
# as §5, with “Md.). The alginate beads were cultured for 7 days at 37° C. in a humidified incubator with 5% CO2 and the culture medium was changed every 3 days.” for “Md.).”
# as §3, §4
# The thus-obtained PCR products (amplicons) were resolved by electrophoresis on a 1.4% agarose gel and visualised by ethidium bromide staining. The optical densities of the resolved bands were semi-quantified using a Bioimaging System (UVP Inc., Upland, Calif.). […] The optical intensity ratios of the PCR products to the 18S rRNA gene were calculated for comparison.
# [5] = system: collagen type II gene; assay: Quantitative real-time PCR, mRNA expression of collagen type II in human articular chondrocytes (KMU-AC); conditions: normalized to GAPDH, control Day 3 = 100%, mean ± S.E.M.
# Experimental: as §1, §5, §3, §6, §7
# [6] = system: alkaline phosphatase (ALP) gene; assay: RT-PCR, mRNA expression of alkaline phosphatase in alginate-bead human articular chondrocytes (NHAC-kn); conditions: p<0.01
# Experimental: as §1, §2, §3, §4
# [7] = system: human articular chondrocytes; assay: TUNEL assay, apoptotic rate of chondrocytes; conditions: Day 14 after 48 hr 15 μg/mL Aza-C; NHAC-kn; p<0.01
# Experimental: (§8) The cultivated alginate beads as described above were treated with 15 μg/mL of 5-azacytidine (Sigma, St Louis, Mo.) for 48 hours. Thereafter, they were maintained in media without Aza-C for another 2 weeks. Cells were harvested on Day 3, 7 and 14 after Aza-C treatment, respectively. The control cultures were cultivated and harvested under the same conditions except that the treatment of Aza-C was omitted.
# (§9) Human articular chondrocytes were released from the alginate beads by dissolving the beads in a 0.9% NaCl solution containing 0.05M sodium citrate and 0.03M sodium EDTA at pH 7.4. Cells for each experiment were collected by low-speed centrifugation at 1,000 rpm for 5 min.
# as §3
# Fragmented DNA of an apoptotic cell was TUNEL stained using an In Situ Cell Death Detection Kit, TMR red (Roche, Germany). […] Slides were observed on a fluorescence microscope with an excitation wavelengthof 580 nm for rhodamine and 365 nm for DAPI. […] Stained cells were counted in 5 microscopic fields for each slide. […]
# [8] = system: human articular chondrocytes; assay: Flow cytometry, cell size of articular chondrocytes; conditions: Day 14 after 48 hr 15 μg/mL Aza-C, NHAC-kn
# Experimental: as §8, §9, §3
# The cell size of articular chondrocytes from the control and Aza-C treated cultures was analysed by flow cytometry on Day 14 after the Aza-C treatment. […] Cells (1×10^6) were then suspended in phosphate buffered saline and analysed immediately on a laser flow cytometer (EPICS Elite; Coulter, Hialeah, Fla.). […]
# [9] = Day 7 after 48 hr treatment with 15 μg/ml Aza-C
# [10] = Day 14 after 48 hr treatment with 15 μg/ml Aza-C
# [11] = Day 3 after 48 hr 15 μg/mL Aza-C
# [12] = Day 7 after 48 hr 15 μg/mL Aza-C
# [13] = Day 14 after 48 hr 15 μg/mL Aza-C
smiles,measurement,setting,value
"Nc1ncn([C@@H]2O[C@H](CO)[C@@H](O)[C@H]2O)c(=O)n1 [Aza-C, 5-azacytidine]","mRNA expression of collagen type II gene (RT-PCR, normalized to 18S rRNA) vs control group",[1]; [9],significantly decreased
same,"mRNA expression of collagen type II gene (RT-PCR, normalized to 18S rRNA) vs control group",[1]; [10],significantly decreased
same,Percentage change of mRNA expression of ALP by quantitative real-time PCR,[2]; [11],175.8 ± 13.5%
same,Percentage change of mRNA expression of ALP by quantitative real-time PCR,[2]; [12],"31,900.0 ± 4.7 %"
same,Percentage change of mRNA expression of ALP by quantitative real-time PCR,[2]; [13],735.6 ± 3.2 %
same,Percentage change of mRNA expression of collagen type X by quantitative real-time PCR,[3]; [11],398.0 ± 26.3 %
same,Percentage change of mRNA expression of collagen type X by quantitative real-time PCR,[3]; [13],335.0 ± 1.4 %
same,"mRNA expression of collagen type X gene (RT-PCR, normalized to 18S rRNA) vs control group",[4]; Day 3 after 48 hr treatment with 15 μg/ml Aza-C,significantly increased
same,"mRNA expression of collagen type X gene (RT-PCR, normalized to 18S rRNA) vs control group",[4]; [9],significantly increased
same,"mRNA expression of collagen type X gene (RT-PCR, normalized to 18S rRNA) vs control group",[4]; [10],significantly increased
same,Percentage change of mRNA expression of collagen type II by quantitative real-time PCR,[5]; [11],7.3 ± 1.2 %
same,Percentage change of mRNA expression of collagen type II by quantitative real-time PCR,[5]; [12],1.0 ± 0.4 %
same,Percentage change of mRNA expression of collagen type II by quantitative real-time PCR,[5]; [13],3.0 ± 0.9 %
same,"mRNA expression of ALP gene (RT-PCR, normalized to 18S rRNA) vs control group",[6]; [9],significantly increased
same,"mRNA expression of ALP gene (RT-PCR, normalized to 18S rRNA) vs control group",[6]; [10],significantly increased
same,apoptotic rate of articular chondrocytes (TUNEL stained / DAPI stained cells) vs control cultures,[7],significantly increased
same,increase of cell size as compared to the control cultures,[8],26%
same,cell size of articular chondrocytes (relative intensity in forward scatter),"[8]; mean ± SEM, control cultures 404.41±1.45, p<0.01",509.20±1.93
